Results from patent EP4692114A1, “CALCITONIN ANALOGUE, AND DERIVATIVE THEREOF AND USE THEREOF” (Hangzhou Sciwind Biosciences Co., Ltd., priority 2023, dated 2024).
*1 amine or outer side, *2 acyl side, *3 side chain or, on linkers, in order; H or OH if unused. Where a SMILES comes first, the peptide text is derived from it. The star is where a group is joined. C20 diacid = O=C(O)CCCCCCCCCCCCCCCCCCC(=O)*; γGlu = O=C(O)[C@H](CCC(=O)[*:2])N[*:1]; βAsp = O=C(O)[C@H](CC(=O)[*:2])N[*:1]

Target: T1, human amylin receptors (Homo sapiens, UniProt O60896+P30988)
T1 sequence (P30988 25-474): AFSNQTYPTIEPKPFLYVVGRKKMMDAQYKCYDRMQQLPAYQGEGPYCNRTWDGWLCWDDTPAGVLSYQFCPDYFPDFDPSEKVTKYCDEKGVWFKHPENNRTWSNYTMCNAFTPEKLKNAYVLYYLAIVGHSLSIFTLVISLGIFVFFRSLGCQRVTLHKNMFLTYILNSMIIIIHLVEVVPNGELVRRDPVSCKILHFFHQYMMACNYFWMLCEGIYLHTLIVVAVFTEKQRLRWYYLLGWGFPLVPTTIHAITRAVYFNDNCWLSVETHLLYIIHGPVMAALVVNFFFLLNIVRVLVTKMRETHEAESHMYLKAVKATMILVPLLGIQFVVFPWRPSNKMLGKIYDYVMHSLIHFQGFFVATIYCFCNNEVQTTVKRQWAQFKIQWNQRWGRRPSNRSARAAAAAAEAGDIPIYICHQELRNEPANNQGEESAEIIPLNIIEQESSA
T1 sequence (O60896 24-148 partner): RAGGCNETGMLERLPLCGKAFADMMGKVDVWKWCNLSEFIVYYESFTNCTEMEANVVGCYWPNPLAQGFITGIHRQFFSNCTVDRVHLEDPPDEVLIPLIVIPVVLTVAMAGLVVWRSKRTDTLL
Test: Luciferase assay of amylin (amylin receptor/CRE-luc cell line);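 also: agonist potency from luminescence of cAMP response element-driven luciferase, EC50 derived from a standard curve of signal versus compound concentration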
Assay type: cell-based
Conditions: stably transfected amylin receptor/CRE-luc CHO cells (CHO-K1/Gal5/AMY3), 24 hours incubation, luciferase readout

| EC50 [nM] | SMILES |
| --- | --- |
| 0.016 | CC(C)C[C@H](NC(=O)[C@H](CCCNC(=N)N)NC(=O)CNC(=O)[C@H](CC(C)C)NC(=O)[C@@H](NC(=O)[C@H](C)NC(=O)[C@@H](NC(=O)[C@H](CO)NC(=O)[C@H](CC(C)C)NC(=O)[C@H](CCC(N)=O)NC(=O)[C@H](CO)NC(=O)[C@H](C)NC(=O)CC[C@H](NC(=O)CCCCCCCCCCCCCCCCCCC(=O)O)C(=O)O)[C@@H](C)O)C(C)C)C(=O)N[C@@H](CO)C(=O)N[C@@H](CCC(N)=O)C(=O)N[C@@H](CCC(=O)O)C(=O)N[C@@H](CC(C)C)C(=O)N[C@@H](Cc1c[nH]cn1)C(=O)N[C@@H](CCCNC(=N)N)C(=O)N[C@@H](CC(C)C)C(=O)N[C@@H](CCC(N)=O)C(=O)N[C@@H](CC(=O)O)C(=O)N[C@@H](Cc1ccc(O)cc1)C(=O)N1CCC[C@H]1C(=O)N[C@@H](CCCNC(=N)N)C(=O)N[C@H](C(=O)N[C@@H](CCC(N)=O)C(=O)N[C@H](C(=O)NCC(=O)N[C@@H](CO)C(=O)NCC(=O)N[C@@H](CO)C(=O)N1CCC[C@H]1C(N)=O)C(C)C)[C@@H](C)O [M15] ({C20 diacid-γGlu}-ASQLSTAVLGRLSQELHRLQDYPRTQVGSGSP-NH2) |
| 0.016 | CC(C)C[C@H](NC(=O)CC[C@H](NC(=O)CCCCCCCCCCCCCCCCCCC(=O)O)C(=O)O)C(=O)N[C@@H](CO)C(=O)N[C@@H](CCC(N)=O)C(=O)N[C@@H](CC(C)C)C(=O)N[C@@H](CO)C(=O)N[C@H](C(=O)N[C@@H](CC(C)C)C(=O)N[C@H](C(=O)N[C@@H](CC(C)C)C(=O)NCC(=O)N[C@@H](CCCNC(=N)N)C(=O)N[C@@H](CC(C)C)C(=O)N[C@@H](CO)C(=O)N[C@@H](CCC(N)=O)C(=O)N[C@@H](CCC(=O)O)C(=O)N[C@@H](CC(C)C)C(=O)N[C@@H](Cc1c[nH]cn1)C(=O)N[C@@H](CCCNC(=N)N)C(=O)N[C@@H](CC(C)C)C(=O)N[C@@H](CCC(N)=O)C(=O)N[C@@H](CC(=O)O)C(=O)N[C@@H](Cc1ccc(O)cc1)C(=O)N1CCC[C@H]1C(=O)N[C@@H](CCCNC(=N)N)C(=O)N[C@H](C(=O)N[C@@H](CC(=O)O)C(=O)N[C@H](C(=O)NCC(=O)N[C@@H](CO)C(=O)NCC(=O)N[C@@H](CO)C(=O)N1CCC[C@H]1C(N)=O)C(C)C)[C@@H](C)O)C(C)C)[C@@H](C)O [M25] ({C20 diacid-γGlu}-LSQLSTLVLGRLSQELHRLQDYPRTDVGSGSP-NH2) |
| 0.017 | CC(C)C[C@H](NC(=O)[C@H](CCCNC(=N)N)NC(=O)CNC(=O)[C@H](CC(C)C)NC(=O)[C@@H](NC(=O)[C@H](C)NC(=O)[C@@H](NC(=O)[C@H](CO)NC(=O)[C@H](CC(C)C)NC(=O)[C@H](CCC(N)=O)NC(=O)[C@H](CO)NC(=O)[C@H](C)NC(=O)[C@H](CCC(=O)O)NC(=O)CCCCCCCCCCCCCCCCCCC(=O)O)[C@@H](C)O)C(C)C)C(=O)N[C@@H](CO)C(=O)N[C@@H](CCC(=O)O)C(=O)N[C@@H](CCC(=O)O)C(=O)N[C@@H](CC(C)C)C(=O)N[C@@H](Cc1c[nH]cn1)C(=O)N[C@@H](CCCNC(=N)N)C(=O)N[C@@H](CC(C)C)C(=O)N[C@@H](CCC(N)=O)C(=O)N[C@@H](CC(=O)O)C(=O)N[C@@H](Cc1ccc(O)cc1)C(=O)N1CCC[C@H]1C(=O)N[C@@H](CCCNC(=N)N)C(=O)N[C@H](C(=O)N[C@@H](CC(=O)O)C(=O)N[C@H](C(=O)NCC(=O)N[C@@H](CO)C(=O)NCC(=O)N[C@@H](CO)C(=O)N1CCC[C@H]1C(N)=O)C(C)C)[C@@H](C)O [M52] ({C20 diacid}-EASQLSTAVLGRLSEELHRLQDYPRTDVGSGSP-NH2) |
| 0.017 | CC(C)C[C@H](NC(=O)[C@H](CCCNC(=N)N)NC(=O)CNC(=O)[C@H](CC(C)C)NC(=O)[C@@H](NC(=O)[C@H](C)NC(=O)[C@@H](NC(=O)[C@H](CO)NC(=O)[C@H](CC(C)C)NC(=O)[C@H](CCC(N)=O)NC(=O)[C@H](CO)NC(=O)[C@H](C)NC(=O)C[C@H](NC(=O)CCCCCCCCCCCCCCCCCCC(=O)O)C(=O)O)[C@@H](C)O)C(C)C)C(=O)N[C@@H](CO)C(=O)N[C@@H](CCC(=O)O)C(=O)N[C@@H](CCC(=O)O)C(=O)N[C@@H](CC(C)C)C(=O)N[C@@H](Cc1c[nH]cn1)C(=O)N[C@@H](CCCNC(=N)N)C(=O)N[C@@H](CC(C)C)C(=O)N[C@@H](CCC(N)=O)C(=O)N[C@@H](CC(=O)O)C(=O)N[C@@H](Cc1ccc(O)cc1)C(=O)N1CCC[C@H]1C(=O)N[C@@H](CCCNC(=N)N)C(=O)N[C@H](C(=O)N[C@@H](CC(=O)O)C(=O)N[C@H](C(=O)NCC(=O)N[C@@H](CO)C(=O)NCC(=O)N[C@@H](CO)C(=O)N1CCC[C@H]1C(N)=O)C(C)C)[C@@H](C)O [M53] ({C20 diacid-βAsp}-ASQLSTAVLGRLSEELHRLQDYPRTDVGSGSP-NH2) |
